Common to all, as to type: cell-based
Test [1] deals with T1, hFP (Homo sapiens, UniProt P43088).
T1 construct: expressed in transfected cells; host or cells: HEK-293(EBNA)
Briefly: FLIPR calcium signal, HEK-293(EBNA) cells expressing hFP. The conditions noted are these: recombinant human FP receptor, read-out: FUNCTIONAL DATA EC50 HFP. The method, then:
(§1) Methods for FLIPR™ Studies
(§2) HEK-293(EBNA) cells, stably expressing one type or subtype of recombinant human prostaglandin receptors (prostaglandin receptors expressed: hDP/Gqs5; hEP1; hEP2/Gqs5; hEP3A/Gqi5; hEP4/Gqs5; hFP; hIP; hTP), were cultured in 100 mm culture dishes in high-glucose DMEM medium containing 10% fetal bovine serum, 2 mM 1-glutamine, 250 μg/ml geneticin (G418) and 200 μg/ml hygromycin B as selection markers, and 100 units/ml penicillin G, 100 μg/ml streptomycin and 0.25 μg/ml amphotericin B.
(§3) (b) Calcium Signal Studies on the FLIPR™
(§4) Cells were seeded at a density of 5×10^4 cells per well in Biocoat® Poly-D-lysine-coated black-wall, clear-bottom 96-well plates (Becton-Dickinson) and allowed to attach overnight in an incubator at 37° C. Cells were then washed two times with HBSS-HEPES buffer (Hanks Balanced Salt Solution without bicarbonate and phenol red, 20 mM HEPES, pH 7.4) using a Denley Cellwash plate washer (Labsystems). After 45 minutes of dye-loading in the dark, using the calcium-sensitive dye Fluo-4 AM at a final concentration of 2 μM, plates were washed four times with HBSS-HEPES buffer to remove excess dye leaving 100 μl in each well. Plates were re-equilibrated to 37° C. for a few minutes.
(§5) Cells were excited with an Argon laser at 488 nm, and emission was measured through a 510-570 nm bandwidth emission filter (FLIPR™, Molecular Devices, Sunnyvale, Calif.). Drug solution was added in a 50 μl volume to each well to give the desired final concentration. The peak increase in fluorescence intensity was recorded for each well. On each plate, four wells each served as negative (HBSS-HEPES buffer) and positive controls (standard agonists: BW245C (hDP); PGE2 (hEP1; hEP2/Gqs5; hEP3A/Gqi5; hEP4/Gqs5); PGF2α (hFP); carbacyclin (hIP); U-46619 (hTP), depending on receptor). The peak fluorescence change in each drug-containing well was then expressed relative to the controls.
Compounds were tested in a high-throughput (HTS) or concentration-response (CoRe) format. In the HTS format, forty-four compounds per plate were examined in duplicates at a concentration of 10^−5 M. To generate concentration-response curves, four compounds per plate were tested in duplicates in a concentration range between 10^−5 and 10^−11 M. The duplicate values were averaged. In either, HTS or CoRe format each compound was tested on at least 3 separate plates using cells from different passages to give an n≧3.

The target of test [2] is T2, hEP3A/Gqi5 (Homo sapiens, UniProt P43115).
T2 construct: expressed in transfected cells; host or cells: HEK-293(EBNA)
T2 sequence (P43115 1-390): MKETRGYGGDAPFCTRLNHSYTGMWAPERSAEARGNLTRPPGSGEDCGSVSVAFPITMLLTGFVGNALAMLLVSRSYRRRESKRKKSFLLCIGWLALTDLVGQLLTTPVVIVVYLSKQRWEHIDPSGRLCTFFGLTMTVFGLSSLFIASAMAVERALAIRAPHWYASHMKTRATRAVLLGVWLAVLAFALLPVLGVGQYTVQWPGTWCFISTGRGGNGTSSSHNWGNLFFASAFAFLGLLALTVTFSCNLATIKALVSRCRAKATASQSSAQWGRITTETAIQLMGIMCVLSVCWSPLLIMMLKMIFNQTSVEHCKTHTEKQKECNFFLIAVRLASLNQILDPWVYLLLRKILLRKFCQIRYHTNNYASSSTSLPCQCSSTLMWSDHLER
Briefly: FLIPR calcium signal, HEK-293(EBNA) cells expressing hEP3A/Gqi5. The conditions noted are these: recombinant human EP3A/Gqi5, HEK-293(EBNA), read-out: FUNCTIONAL DATA EC50 HEP3A. The method, then:
as §1, §2, §3, §4, §5
(§6) Compounds were tested in a high-throughput (HTS) or concentration-response (CoRe) format. […]

Test [3] deals with T3, hTP (Homo sapiens, UniProt P21731).
T3 construct: expressed in transfected cells; host or cells: HEK-293(EBNA)
T3 sequence (P21731 1-343): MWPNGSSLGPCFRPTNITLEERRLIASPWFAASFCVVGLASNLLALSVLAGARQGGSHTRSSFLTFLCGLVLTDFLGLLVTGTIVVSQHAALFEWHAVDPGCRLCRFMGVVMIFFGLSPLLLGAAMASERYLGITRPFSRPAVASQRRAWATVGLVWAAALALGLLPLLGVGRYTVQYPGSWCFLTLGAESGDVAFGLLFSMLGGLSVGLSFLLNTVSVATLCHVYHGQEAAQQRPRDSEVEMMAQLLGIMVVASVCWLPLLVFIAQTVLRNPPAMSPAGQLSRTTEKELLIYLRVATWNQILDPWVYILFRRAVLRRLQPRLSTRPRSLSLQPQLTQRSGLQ
Briefly: FLIPR calcium signal, HEK-293(EBNA) cells expressing hTP. The conditions noted are these: recombinant human TP receptor, read-out: FUNCTIONAL DATA EC50 HTP. The method, then: as §1, §2, §3, §4, §5, §6

Structures are written as SMILES. Some results are limits rather than exact numbers.

T1 sequence (P43088 whole entry): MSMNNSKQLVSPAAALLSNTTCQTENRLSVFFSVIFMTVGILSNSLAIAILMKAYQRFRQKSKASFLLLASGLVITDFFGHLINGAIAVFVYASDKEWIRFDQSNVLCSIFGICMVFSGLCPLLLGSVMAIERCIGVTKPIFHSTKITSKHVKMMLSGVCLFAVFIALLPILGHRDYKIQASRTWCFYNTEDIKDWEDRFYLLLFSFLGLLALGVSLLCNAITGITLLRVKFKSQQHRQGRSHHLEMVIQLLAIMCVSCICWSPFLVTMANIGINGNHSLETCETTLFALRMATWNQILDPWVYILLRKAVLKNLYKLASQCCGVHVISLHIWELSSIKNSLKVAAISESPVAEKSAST

Turning to `C=C[C@@H]1CC(O)[C@H](C/C=C\CCCC(=O)O)[C@H]1/C=C/[C@@H](O)CCc1cc(Br)c(C)s1` (single isomer, unassigned) [drawing 47], the concentration giving a half-maximal response (EC50) (in general, the concentration at which the effect is half-maximal) in test [1] was 61 nM; in test [2] it was 304 nM; in test [3], 243 nM.
On to `Cc1sc(CC[C@H](O)/C=C/[C@H]2[C@H](C)CC(O)[C@@H]2C/C=C\CCCC(=O)O)cc1Br` (single isomer, unassigned), for which the 50% effective concentration (EC50) in test [1] worked out at 43 nM.
With `C=C[C@@H]1CC(O)[C@H](C/C=C\CCCC(=O)OC)[C@H]1/C=C/[C@@H](O)CCc1cc(Br)c(C)s1` (single isomer, unassigned) [drawing 49], the values for the EC50 in test [1], in test [2] and in test [3] were 742 nM, 6010 nM and 1810 nM, respectively.
In the case of `C=C[C@@H]1CC(O)[C@H](C/C=C\CCCC(=O)OC)[C@H]1/C=C/[C@@H](O)CCc1cc(Br)c(C)s1` (single isomer, unassigned) [drawing 51], the concentration giving a half-maximal response (EC50) in test [1] and in test [3] was above 10000 nM throughout.
As to `C=C[C@@H]1CC(O)[C@H](C/C=C\CCCC(=O)O)[C@H]1/C=C/[C@@H](O)CCc1cc(Br)c(C)s1` (single isomer, unassigned) [drawing 48], the values for the concentration for a half-maximal effect (EC50) in test [1] and in test [2] were 1530 nM and 554 nM, respectively.

Source of the values: US8168680B2, “Cyclopentane heptan(ENE)OIC acid, 2-heteroarylalkenyl derivatives as therapeutic agents” (Allergan, Inc., priority 2004, dated 2012).
